Data taken from patent US20230321251A1, “LIPOSOME FORMULATION CONTAINING ANTIBACTERIAL AGENT” (priority 2020, published 2023).
Values after ≈ are worked out from the molar mass of the structure shown.

How the values were obtained:
[1] = system: 2% red blood cell suspension (defibrated sheep blood); experiment: In vitro hemolysis test; assay type: cell-based; conditions: sheep red blood cells, 24 hours incubation
Experimental: Hemolysis rates of the compound A drug substance and the liposome formulation of Example 2 were evaluated by the following methods.
A 10 mM concentration solution of each test substance was prepared using a 5% sugar solution as a solvent, and 12 types of formulation solutions were prepared for each test substance up to 0.0049 mM by 2-fold serial dilution. Using 20% FBS-supplemented M-199 medium (With Earle's salts, sodium bicarbonate and 25 mM HEPES, supplement with 0.1 g/L L-glutamine) as a medium, a 2% red blood cell suspension (defibrated sheep blood) was prepared and mixed with a solvent or each test substance formulation solution (n=2). […] A mixed solution of the solvent or each test substance formulation solution and the red blood cell suspension or the medium was incubated for 24 hours, then the supernatant was collected, and an absorbance at 540 nm was measured. At the stage of completion of each incubation, an absorbance of the solvent and the red blood cell suspension, and an absorbance of the solvent and the medium were set to a reference of “hemolysis rate 0%”, and an absorbance of the 100% hemolysis solution was set to a reference of “100% hemolysis”, and a hemolysis rate by mixing and incubating each test substance formulation solution and the red blood cell suspension was calculated by the following calculation formula. […]

[2] = In vitro cytotoxicity test (resazurin); assay type: cell-based; conditions: African green monkey, Vero cells, 72 hours culture
Experimental: Vero cells (final concentration: 2.0×10 to the power of 4 cells/well) cultured in advance and each test substance were added to 96 wells, and cultured for 72 hours under conditions of 5% CO2 and 37° C. Thereafter, 10 μl/well of a 0.01% resazurin solution was added, and after mixing, the cells were cultured under conditions of 5% CO2 and 37° C. for 4 hours, and then a fluorescence value (Ex 531 nm/Em 590 nm) was measured using a microplate reader.

E. faecium SRM1101 = experiment: In vitro antibacterial activity (MIC), agar plate dilution; assay type: cell-based; conditions: Enterococcus faecium, SRM1101, read-out: minimum inhibitory concentration (MIC)
Experimental: (§1) A minimum inhibitory concentration was measured as in vitro antibacterial activity. The minimum inhibitory concentration (MIC: μg/ml) was measured according to the standard method of Japanese Society of Chemotherapy, by an agar plate dilution method using 1000 cfu/spot as an inoculum amount and a susceptibility disk medium as a test medium.
(§2) In the tables, a unit of a numerical value of inhibitory activity is μg/ml. In addition, in the tables, S. aureus represents Staphylococcus aureus and E. faecalis represents Gram-positive group D streptococci (enterococci) that are resident in a normal bacterial flora of a human intestinal tract, and can be causative bacteria of endocarditis and the like after surgery.

E. faecium SR7940 = experiment: as above; assay type: cell-based; conditions: Enterococcus faecium, SR7940, read-out: minimum inhibitory concentration (MIC), E. faecium SR7940, 1000 cfu/spot
Experimental: as §1, §2

S. aureus SR3637 = experiment: as above; assay type: cell-based; conditions: Staphylococcus aureus, SR3637, read-out: minimum inhibitory concentration (MIC), S. aureus SR3637, 1000 cfu/spot
Experimental: as §1, §2

E. faecalis SR1004 = experiment: as above; assay type: cell-based; conditions: Enterococcus faecalis, SR1004, read-out: minimum inhibitory concentration (MIC), E. faecalis SR1004, 1000 cfu/spot
Experimental: as §1, §2

E. faecalis SR7914 = experiment: as above; assay type: cell-based; conditions: Enterococcus faecalis, SR7914, read-out: minimum inhibitory concentration (MIC), E. faecalis SR7914, 1000 cfu/spot
Experimental: as §1, §2

S. aureus VRS1 = experiment: as above; assay type: cell-based, Staphylococcus aureus; conditions: Staphylococcus aureus, VRS1, read-out: minimum inhibitory concentration (MIC), S. aureus VRS1, 1000 cfu/spot
Experimental: as §1, §2

S. aureus ATCC25923 = experiment: as above; assay type: cell-based, Staphylococcus aureus; conditions: Staphylococcus aureus, ATCC25923, read-out: minimum inhibitory concentration (MIC), S. aureus ATCC25923, 1000 cfu/spot
Experimental: as §1, §2

S. aureus ATCC700787 = experiment: as above; assay type: cell-based, Staphylococcus aureus; conditions: Staphylococcus aureus, ATCC700787, read-out: minimum inhibitory concentration (MIC)
Experimental: as §1, §2

## CN[C@H](CC(C)C)C(=O)NC1C(=O)N[C@@H](CC(N)=O)C(=O)N[C@H]2C(=O)N[C@H]3C(=O)N[C@H](C(=O)N[C@@H](C(=O)O)c4cc(O)cc(O)c4-c4cc3ccc4O)[C@H](O[C@H]3C[C@](C)(N)[C@@H](O)[C@H](C)O3)c3ccc(c(Cl)c3)Oc3cc2cc(c3O[C@@H]2O[C@H](CO)[C@@H](O[C@@H]3O[C@H](CNCc4ccc(-c5ccc(Cl)cc5)s4)[C@H](O)[C@H](O)[C@H]3O)[C@H](O)[C@H]2O)Oc2ccc(cc2Cl)[C@H]1O (stereo partly shown) [Compound A drug substance]
[1]
  Hemolysis rate: 34%
[2]
  CC50 at 72 h: 128 µg/mL (≈ 70.4 µM)
E. faecium SRM1101
  MIC: 2 µg/mL (≈ 1.1 µM)
E. faecium SR7940
  MIC: 2 µg/mL (≈ 1.1 µM)
S. aureus SR3637
  MIC: 1 µg/mL (≈ 0.55 µM)
E. faecalis SR1004
  MIC: 0.5 µg/mL (≈ 0.275 µM)
E. faecalis SR7914
  MIC: 2 µg/mL (≈ 1.1 µM)
S. aureus VRS1
  MIC: 4 µg/mL (≈ 2.2 µM)
S. aureus ATCC25923
  MIC: 1 µg/mL (≈ 0.55 µM)
S. aureus ATCC700787
  MIC: 2 µg/mL (≈ 1.1 µM)
